Experimental data taken from patent US5567692A, “9-[(substituted glycyl) amido)]-6-demethyl-6-deoxytetracyclines” (priority 1995, dated 1996).
Converted amounts (≈) assume the structure as drawn.

How the values were obtained:
Format in all cases: cell-based
E. coli J3272 Tet sens = assay: MIC, agar dilution; conditions: Escherichia coli, J3272TETSENS, 18 h
E. coli J2175 = assay: MIC, agar dilution; conditions: Escherichia coli, 18 h, read-out: MIC
E. coli UBMS 90-5 = assay: microbe, parasite or virus in culture; conditions: Escherichia coli, UBMS905, 18 h, E. coli UBMS 90-5; read-out: MIC
E. coli ATCC 25922 = assay: MIC, agar dilution; conditions: Escherichia coli, ATCC25922, 18 h
S. marcescens FPOR 8733 = assay: MIC, agar dilution; conditions: Serratia marcescens, FPOR8733, 18 h
[1] = tested on: Ps. aeruginosa ATCC 27853; assay: MIC, agar dilution; conditions: Pseudomonas aeruginosa, ATCC27853, 18 h
S. aureus NEMC 8769 = assay: MIC, agar dilution; conditions: Staphylococcus aureus, NEMC8769, 18 h
S. aureus UBMS 88-4 = assay: MIC, agar dilution; conditions: Staphylococcus aureus, UBMS884, 18 h; S. aureus UBMS 88-4
S. aureus UBMS 90-3 = assay: MIC, agar dilution; conditions: Staphylococcus aureus, UBMS903, 18 h, S. aureus UBMS 90-3
S. aureus SMITH (MP) = assay: MIC, agar dilution; conditions: Staphylococcus aureus, 18 h; S. aureus SMITH (MP)
S. aureus ATCC 29213 = assay: MIC, agar dilution; conditions: Staphylococcus aureus, ATCC29213, 18 h, S. aureus ATCC 29213
[2] = tested on: S. hemolyticus AVHAH 88-3; assay: MIC, agar dilution; conditions: Streptococcus pyogenes, AVHAH883, 18 h
Enterococcus 12201 = assay: MIC, agar dilution; conditions: Enterococcus, 12201, 18 h
[3] = tested on: Staphylococcus aureus, (methicillin-susceptible); assay: MIC range, recent clinical and veterinary isolates; conditions: Staphylococcus aureus, 18 h, read-out: MIC Range
Enterococcus faecalis = assay: MIC range, recent clinical and veterinary isolates; conditions: 18 h, read-out: MIC Range
Enterococcus faecium = assay: MIC range, recent clinical and veterinary isolates; conditions: 18 h, read-out: MIC Range
Streptococcus pyogenes = assay: MIC range, recent clinical and veterinary isolates; conditions: 18 h, read-out: MIC Range
Streptococcus agalactiae = assay: MIC range, recent clinical and veterinary isolates; conditions: 18 h, read-out: MIC Range
Streptococcus pneumoniae = assay: MIC range, recent clinical and veterinary isolates; conditions: 18 h, read-out: MIC Range
Klebsiella oxytoca = assay: MIC range, recent clinical and veterinary isolates; conditions: 18 h, read-out: MIC Range
Citrobacter freundii = assay: MIC range, recent clinical and veterinary isolates; conditions: 18 h, read-out: MIC Range
Citrobacter diversus = assay: MIC range, recent clinical and veterinary isolates; conditions: Citrobacter koseri, 18 h, read-out: MIC Range
Enterobacter cloacae = assay: MIC range, recent clinical and veterinary isolates; conditions: 18 h, read-out: MIC Range
Enterobacter aerogenes = assay: MIC range, recent clinical and veterinary isolates; conditions: Klebsiella aerogenes, 18 h, read-out: MIC Range
Proteus mirabilis = assay: MIC range, recent clinical and veterinary isolates; conditions: 18 h, read-out: MIC Range
Proteus vulgaris = assay: MIC range, recent clinical and veterinary isolates; conditions: 18 h, read-out: MIC Range
Pseudomonas aeruginosa = assay: MIC range, recent clinical and veterinary isolates; conditions: 18 h, read-out: MIC Range
Xanthamonas maltophilia = assay: MIC range, recent clinical and veterinary isolates; conditions: 18 h, read-out: MIC Range
Moraxella catarrhalis = assay: MIC range, recent clinical and veterinary isolates; conditions: 18 h, read-out: MIC Range
Haemophilus influenzae = assay: MIC range, recent clinical and veterinary isolates; conditions: 18 h, [15] isolates
[4] = tested on: Pasturella multocida (Veterinary); assay: MIC range, recent clinical and veterinary isolates; conditions: 18 h, [17] isolates
[5] = tested on: Bordetella bronchiseptica (Veterinary); assay: MIC range, recent clinical and veterinary isolates; conditions: Bordetella bronchiseptica, 18 h, read-out: MIC Range
[6] = tested on: Bacteroides fragilis group; assay: MIC range, recent clinical and veterinary isolates; conditions: Bacteroides fragilis, 18 h, read-out: MIC Range
Clostridium difficile = assay: MIC range, recent clinical and veterinary isolates; conditions: Clostridioides difficile, 18 h, read-out: MIC Range
Clostridium perfringens = assay: microbe, parasite or virus in culture; conditions: [16] isolates
Clostridium spp. = assay: MIC range, recent clinical and veterinary isolates; conditions: [9] isolates

SMILES: CN(C)[C@@H]1C(O)=C(C(N)=O)C(=O)[C@@]2(O)C(O)=C3C(=O)c4c(O)cccc4[C@@](C)(O)[C@H]3C[C@@H]12 [T, Tetracycline]
- MIC (E. coli J3272 Tet sens): 1 µg/mL (≈ 2.25 µM)
- MIC (E. coli J2175): 1 µg/mL (≈ 2.25 µM)
- MIC (E. coli UBMS 90-5): 0.5 µg/mL (≈ 1.13 µM)
- MIC (E. coli ATCC 25922): 0.5 µg/mL (≈ 1.13 µM)
- MIC (S. marcescens FPOR 8733): > 32 µg/mL
- MIC [1]: 8 µg/mL (≈ 18 µM)
- MIC (S. aureus NEMC 8769): 0.06 µg/mL (≈ 0.135 µM)
- MIC (S. aureus UBMS 88-4): 0.12 µg/mL (≈ 0.27 µM)
- MIC (S. aureus UBMS 90-3): 0.12 µg/mL (≈ 0.27 µM)
- MIC (S. aureus SMITH (MP)): 0.12 µg/mL (≈ 0.27 µM)
- MIC (S. aureus ATCC 29213): < 0.015 µg/mL
- MIC [2]: 0.5 µg/mL (≈ 1.13 µM)
- MIC (Enterococcus 12201): 32 µg/mL (≈ 72 µM)
- MIC [3]: 0.12 to 1 µg/mL (≈ 0.27 to 2.25 µM)
- MIC (Enterococcus faecalis): 0.12 to 64 µg/mL (≈ 0.27 to 144 µM)
- MIC (Enterococcus faecium): 0.12 to 64 µg/mL (≈ 0.27 to 144 µM)
- MIC (Streptococcus pyogenes): 0.12 to 16 µg/mL (≈ 0.27 to 36 µM)
- MIC (Streptococcus agalactiae): 0.25 to 64 µg/mL (≈ 0.563 to 144 µM)
- MIC (Streptococcus pneumoniae): 0.12 to 2 µg/mL (≈ 0.27 to 4.5 µM)
- MIC (Klebsiella oxytoca): 0.5 to 1 µg/mL (≈ 1.13 to 2.25 µM)
- MIC (Citrobacter freundii): 0.5 to 16 µg/mL (≈ 1.13 to 36 µM)
- MIC (Citrobacter diversus): 0.5 to 4 µg/mL (≈ 1.13 to 9 µM)
- MIC (Enterobacter cloacae): 0.5 to 2 µg/mL (≈ 1.13 to 4.5 µM)
- MIC (Enterobacter aerogenes): 0.5 to 1 µg/mL (≈ 1.13 to 2.25 µM)
- MIC (Proteus mirabilis): 0.5 to 64 µg/mL (≈ 1.13 to 144 µM)
- MIC (Proteus vulgaris): 0.25 to 64 µg/mL (≈ 0.563 to 144 µM)
- MIC (Pseudomonas aeruginosa): 2 to 32 µg/mL (≈ 4.5 to 72 µM)
- MIC (Xanthamonas maltophilia): 8 to 16 µg/mL (≈ 18 to 36 µM)
- MIC (Moraxella catarrhalis): 0.06 to 0.5 µg/mL (≈ 0.135 to 1.13 µM)
- MIC (Haemophilus influenzae): 1 to 32 µg/mL (≈ 2.25 to 72 µM)
- MIC [4]: 0.06 to 16 µg/mL (≈ 0.135 to 36 µM)
- MIC [5]: 0.12 to 0.25 µg/mL (≈ 0.27 to 0.563 µM)
- MIC [6]: 0.25 to 32 µg/mL (≈ 0.563 to 72 µM)
- MIC (Clostridium difficile): 0.12 to 32 µg/mL (≈ 0.27 to 72 µM)
- MIC Range (Clostridium perfringens): 0.015 to 16 µg/mL
- MIC Range (Clostridium spp.): 0.015 to 64 µg/mL
